In brackets after ≈: the same amount, converted by molar mass. Residues, ends and D or L forms follow the SMILES beside them.
How the values were obtained:
[1] = system: S aureus COL (methicillin-resistant Staphylococcus aureus); conditions: for MIC at pH 5.0, S aureus COL: COL (methicillin-resistant, pH 5); for MIC at pH 7.4, S aureus COL: COL (methicillin-resistant, pH 7.4); for MIC at pH 8.0, S aureus COL: COL (methicillin-resistant, pH 8)
A. baumannii ATCC 19606 = conditions: for MIC at pH 5.0, A. baumannii ATCC 19606: ATCC 19606, pH 5; for MIC at pH 7.4, A. baumannii ATCC 19606: ATCC 19606, pH 7.4; for MIC at pH 8.0, A. baumannii ATCC 19606: ATCC 19606, pH 8
K. pneumoniae NCTC 418 = conditions: for MIC at pH 5.0, K. pneumoniae NCTC 418: NCTC 418, pH 5; for MIC at pH 7.4, K. pneumoniae NCTC 418: NCTC 418, pH 7.4; for MIC at pH 8.0, K. pneumoniae NCTC 418: NCTC 418, pH 8
E. cloacae = conditions: pH 7.4
K. pneumoniae OXA-48 = conditions: OXA-48, pH 7.4
S. maltophilia = conditions: pH 7.4
P. aeruginosa ZEM-1A = conditions: ZEM-1A, pH 7.4
S. aureus Newman = conditions: Newman, pH 7.4
B. cenocepacia = conditions: pH 7.4
P. aeruginosa PAO1 = conditions: for MIC at pH 5.0, P. aeruginosa PAO1: PAO1, pH 5; for MIC at pH 7.4, P. aeruginosa PAO1: PAO1, pH 7.4; for MIC at pH 8.0, P. aeruginosa PAO1: PAO1, pH 8
E. coli W3110 = conditions: for MIC at pH 5.0, E. coli W3110: W3110, pH 5; for MIC at pH 7.4, E. coli W3110: W3110, pH 7.4; for MIC at pH 8.0, E. coli W3110: W3110, pH 8
P. aeruginosa PA14 = conditions: PA14, pH 7.4
P. aeruginosa ZEM9A = conditions: ZEM9A, pH 7.4

MIC at pH 5.0, S aureus COL [1] [μg/mL]	MIC at pH 7.4, S aureus COL [1] [μg/mL]	MIC at pH 8.0, S aureus COL [1] [μg/mL]	MIC at pH 5.0, A. baumannii ATCC 19606 (A. baumannii ATCC 19606) [μg/mL]	MIC at pH 7.4, A. baumannii ATCC 19606 (A. baumannii ATCC 19606) [μg/mL]	MIC at pH 8.0, A. baumannii ATCC 19606 (A. baumannii ATCC 19606) [μg/mL]	MIC at pH 5.0, K. pneumoniae NCTC 418 (K. pneumoniae NCTC 418) [μg/mL]	MIC at pH 7.4, K. pneumoniae NCTC 418 (K. pneumoniae NCTC 418) [μg/mL]	MIC at pH 8.0, K. pneumoniae NCTC 418 (K. pneumoniae NCTC 418) [μg/mL]	MIC, E. cloacae (E. cloacae) [mg/L]	MIC, K. pneumoniae OXA-48 (K. pneumoniae OXA-48) [mg/L]	MIC, S. maltophilia (S. maltophilia) [mg/L]	MIC, P. aeruginosa ZEM-1A (P. aeruginosa ZEM-1A) [mg/L]	MIC, S. aureus Newman (S. aureus Newman) [mg/L]	MIC, B. cenocepacia (B. cenocepacia) [mg/L]	MIC at pH 5.0, P. aeruginosa PAO1 (P. aeruginosa PAO1) [μg/mL]	MIC at pH 7.4, P. aeruginosa PAO1 (P. aeruginosa PAO1) [μg/mL]	MIC at pH 8.0, P. aeruginosa PAO1 (P. aeruginosa PAO1) [μg/mL]	MIC at pH 5.0, E. coli W3110 (E. coli W3110) [μg/mL]	MIC at pH 7.4, E. coli W3110 (E. coli W3110) [μg/mL]	Compound	further results
> 64	> 64	4	16	8	4	> 64	> 64	16	8 (≈ 1.83 µM)	4 (≈ 0.914 µM)	4 (≈ 0.914 µM)	4 (≈ 0.914 µM)	64 (≈ 14.6 µM)	>64	16	4	4	8	4	CC(C)C[C@@H](NC(=O)[C@H](N)CCCCN)C(=O)NCCCC[C@@H](NC(=O)[C@@H](CC(C)C)NC(=O)[C@H](N)CCCCN)C(=O)N[C@H](CC(C)C)C(=O)NCCCC[C@@H](NC(=O)[C@@H](CC(C)C)NC(=O)[C@@H](CCCCNC(=O)[C@@H](CC(C)C)NC(=O)[C@H](N)CCCCN)NC(=O)[C@@H](CC(C)C)NC(=O)[C@H](N)CCCCN)C(=O)N[C@H](CCCCN)C(=O)N[C@H](CC(C)C)C(=O)N[C@H](CC(C)C)C(=O)NCCCC[C@@H](NC(=O)[C@@H](CC(C)C)NC(=O)[C@@H](CC(C)C)NC(=O)[C@@H](CCCCN)NC(=O)[C@@H](CCCCNC(=O)[C@@H](CC(C)C)NC(=O)[C@@H](CCCCNC(=O)[C@@H](CC(C)C)NC(=O)[C@H](N)CCCCN)NC(=O)[C@@H](CC(C)C)NC(=O)[C@H](N)CCCCN)NC(=O)[C@@H](CC(C)C)NC(=O)[C@@H](CCCCNC(=O)[C@@H](CC(C)C)NC(=O)[C@H](N)CCCCN)NC(=O)[C@@H](CC(C)C)NC(=O)[C@H](N)CCCCN)C(=O)N[C@H](CC(C)C)C(=O)N[C@H](CCCCN)C(=O)N[C@H](CCCCN)C(N)=O [D-X22] (HELM PEPTIDE1{[dK].[dL].[dK].[dL].[dK].[dK].[dL].[dL].[dK].[dL].[dK].[dK].[am]}|PEPTIDE2{[CC(C)C[C@@H](NC(=O)[C@H](N)CCCCN)C(=O)NCCCC[C@@H](NC(=O)[C@@H](CC(C)C)NC(=O)[C@H](N)CCCCN)C(=O)[*:2]].[dL]}|PEPTIDE3{[dK].[dL]}|PEPTIDE4{[dK].[dL].[dK].[dL].[dK].[dK].[dL].[dL]}|PEPTIDE5{[CC(C)C[C@@H](NC(=O)[C@H](N)CCCCN)C(=O)NCCCC[C@@H](NC(=O)[C@@H](CC(C)C)NC(=O)[C@H](N)CCCCN)C(=O)[*:2]].[dL]}|PEPTIDE6{[dK].[dL]}$PEPTIDE1,PEPTIDE2,5:R3-2:R2|PEPTIDE1,PEPTIDE3,3:R3-2:R2|PEPTIDE4,PEPTIDE5,5:R3-2:R2|PEPTIDE4,PEPTIDE6,3:R3-2:R2|PEPTIDE1,PEPTIDE4,9:R3-8:R2$$$V2.0)	MIC at pH 8.0, E. coli W3110 (E. coli W3110): 4 μg/mL; MIC, P. aeruginosa PA14 (P. aeruginosa PA14): 4 mg/L (≈ 0.914 µM); MIC, P. aeruginosa ZEM9A (P. aeruginosa ZEM9A): 8 mg/L (≈ 1.83 µM)
> 64	> 64	8	8	4	2	> 64	> 64	8	4 (≈ 0.914 µM)	8 (≈ 1.83 µM)	4 (≈ 0.914 µM)	4 (≈ 0.914 µM)	>64	>64	8	4	4	8	4	CC(C)C[C@H](NC(=O)[C@H](CC(C)C)NC(=O)[C@H](CCCCN)NC(=O)[C@H](CCCCNC(=O)[C@H](CC(C)C)NC(=O)[C@H](CCCCNC(=O)[C@H](CC(C)C)NC(=O)[C@@H](N)CCCCN)NC(=O)[C@H](CC(C)C)NC(=O)[C@@H](N)CCCCN)NC(=O)[C@H](CC(C)C)NC(=O)[C@H](CCCCNC(=O)[C@H](CC(C)C)NC(=O)[C@@H](N)CCCCN)NC(=O)[C@H](CC(C)C)NC(=O)[C@@H](N)CCCCN)C(=O)NCCCC[C@H](NC(=O)[C@H](CC(C)C)NC(=O)[C@H](CC(C)C)NC(=O)[C@H](CCCCN)NC(=O)[C@H](CCCCNC(=O)[C@H](CC(C)C)NC(=O)[C@H](CCCCNC(=O)[C@H](CC(C)C)NC(=O)[C@@H](N)CCCCN)NC(=O)[C@H](CC(C)C)NC(=O)[C@@H](N)CCCCN)NC(=O)[C@H](CC(C)C)NC(=O)[C@H](CCCCNC(=O)[C@H](CC(C)C)NC(=O)[C@@H](N)CCCCN)NC(=O)[C@H](CC(C)C)NC(=O)[C@@H](N)CCCCN)C(=O)N[C@@H](CC(C)C)C(=O)N[C@@H](CCCCN)C(=O)N[C@@H](CCCCN)C(N)=O [L-X22] (HELM PEPTIDE1{K.L.K.L.K.K.L.L.K.L.K.K.[am]}|PEPTIDE2{[CC(C)C[C@H](NC(=O)[C@@H](N)CCCCN)C(=O)NCCCC[C@H](NC(=O)[C@H](CC(C)C)NC(=O)[C@@H](N)CCCCN)C(=O)[*:2]].L}|PEPTIDE3{K.L}|PEPTIDE4{K.L.K.L.K.K.L.L}|PEPTIDE5{[CC(C)C[C@H](NC(=O)[C@@H](N)CCCCN)C(=O)NCCCC[C@H](NC(=O)[C@H](CC(C)C)NC(=O)[C@@H](N)CCCCN)C(=O)[*:2]].L}|PEPTIDE6{K.L}$PEPTIDE1,PEPTIDE2,5:R3-2:R2|PEPTIDE1,PEPTIDE3,3:R3-2:R2|PEPTIDE4,PEPTIDE5,5:R3-2:R2|PEPTIDE4,PEPTIDE6,3:R3-2:R2|PEPTIDE1,PEPTIDE4,9:R3-8:R2$$$V2.0)	MIC at pH 8.0, E. coli W3110 (E. coli W3110): 2 μg/mL; MIC, P. aeruginosa PA14 (P. aeruginosa PA14): 4 mg/L (≈ 0.914 µM); MIC, P. aeruginosa ZEM9A (P. aeruginosa ZEM9A): 32 mg/L (≈ 7.31 µM)
